Test results published in US20190343908A1, “Therapeutic Combination for the Treatment of Cancer” (Nerium Biotechnology Inc., priority 2011, published 2019).

Assays:
[1] = tested on: PC3 (human prostate cancer); assay: Methyl-Tetrazolium viability assay, PC3; type: cell-based; set-up: key: absorbance at 570 nm (optical density)
Source text: (§1) The Methyl-Tetrazolium dye assay measures the activity of enzymes in mitochondria. The dye precursor is taken up by cells, where it undergoes reduction to the purple formazan. It measures only the mitochondrial activity and, thus, it is not always a reliable indication of whether the cells themselves are alive or dead, since even a recently dead cell has […] enzyme activity in mitochondria. Intracellular glucose concentration, pH, and time before assay all affect the measurements.
(§2) The Methyl Tetrazolium, Sulforhodamine B, and Crystal Violet assays were used to assess cell viabilities. The incubation times were 24 hours, 48 hours, and 72 hours. The Nerium oleander extract Anvirzel™ (a hot water extract of oleander obtained from Salud Integral, Honduras) was tested in concentrations ranging from 0.01 ng/mL to 10 ng/mL.
(§3) Cells were detached by trypsinization (Trypsin-0.25% EDTA, Invitrogen, 25200-072) during the logarithmic phase of culture growth and plated in 96-well plates (18.000 cells/well) (Corning, Costar 359) in a final volume of 200 μl of medium per well. […] The absorbance was measured after 24 hours, 48 hours, and 72 hours of incubation.
(§4) For the Methyl-Tetrazolium assay, the dye (Sigma, M2128; 5 mg/mL, diluted in phosphate-buffered saline) was added to each well and plates were incubated for 3 hours at 37° C. After the end of the incubation period, the medium was discarded and the cells were rinsed with phosphate-buffered saline. Finally, the formazan crystals were dissolved in dimethylsulphoxide (Sigma, D4540).
(§5) The optical density of each plate was measured on a μQuant spectrophotometer and the data were analyzed with Gen5 software (μQuant Biomolecular Spectrophotometer MQX200 and Gen5™ Microplate Data Collection & Analysis software, BioTek® Instruments. Inc, April 2008). Absorbance was measured at 570 nm for all assays and a second wavelength was measured in order to subtract noise. For the Methyl-Tetrazolium assay this second wavelength was 630 nm and for the Sulforhodamine B and Crystal Violet assays it was 690 nm.

[2] = tested on: MCF-7 (human breast cancer); assay: Methyl-Tetrazolium viability assay, MCF-7; type: cell-based; set-up: key: absorbance (optical density) at 570 nm, second wavelength subtracted
Source text: Three different viability assays were chosen to complement each other and yielded results dependent on concentration and cell line: the Methyl Tetrazolium dye assay, the Sulforhodamine B fluorescent dye assay, and the Crystal Violet dye assay.
as §1, §2, §3, §4, §5

For N.N.[Cl][Pt][Cl] [cisplatin], the “MTT Average” value ([1]; PC3 Run 1, 24 h, 0.1 μg/ml CDDP) was 0.137, the “MTT Average” value ([1]; PC3 Run 1, 24 h, 1 μg/ml CDDP) was 0.049 and the “MTT Average” value ([1]; PC3 Run 1, 24 h, 10 μg/ml CDDP) was 0.091. The “MTT Average” value ([1]; PC3 Run 1, 24 h, 100 μg/ml CDDP) was 0.053, the “MTT Average” value ([1]; PC3 Run 1, 48 h, 0.1 μg/ml CDDP) was 0.162 and the “MTT Average” value ([1]; PC3 Run 1, 48 h, 1 μg/ml CDDP) was 0.027. The “MTT Average” value ([1]; PC3 Run 1, 48 h, 10 μg/ml CDDP) was 0.064, the “MTT Average” value ([1]; PC3 Run 1, 48 h, 100 μg/ml CDDP) was 0.029 and the “MTT Average” value ([1]; PC3 Run 1, 72 h, 0.1 μg/ml CDDP) was 0.188. The “MTT Average” value ([1]; PC3 Run 1, 72 h, 1 μg/ml CDDP) was 0.034, the “MTT Average” value ([1]; PC3 Run 1, 72 h, 10 μg/ml CDDP) was 0.044 and the “MTT Average” value ([1]; PC3 Run 1, 72 h, 100 μg/ml CDDP) was 0.029. The “MTT Average” value ([1]; PC3 Run 2, 24 h, 0.1 μg/ml CDDP) was 0.072, the “MTT Average” value ([1]; PC3 Run 2, 24 h, 1 μg/ml CDDP) was 0.04 and the “MTT Average” value ([1]; PC3 Run 2, 24 h, 10 μg/ml CDDP) was 0.079. For the same molecule, the “MTT Average” value ([1]; PC3 Run 2, 24 h, 100 μg/ml CDDP) was 0.052, the “MTT Average” value ([1]; PC3 Run 2, 48 h, 0.1 μg/ml CDDP) was 0.195 and the “MTT Average” value ([1]; PC3 Run 2, 48 h, 1 μg/ml CDDP) was 0.051. For the same molecule, the “MTT Average” value ([1]; PC3 Run 2, 48 h, 10 μg/ml CDDP) was 0.074, the “MTT Average” value ([1]; PC3 Run 2, 48 h, 100 μg/ml CDDP) was 0.047 and the “MTT Average” value ([1]; PC3 Run 2, 72 h, 0.1 μg/ml CDDP) was 0.223. For the same molecule, the “MTT Average” value ([1]; PC3 Run 2, 72 h, 1 μg/ml CDDP) was 0.039, the “MTT Average” value ([1]; PC3 Run 2, 72 h, 10 μg/ml CDDP) was 0.068 and the “MTT Average” value ([1]; PC3 Run 2, 72 h, 100 μg/ml CDDP) was 0.037. The “MTT Average” value ([1]; PC3 Run 3, 24 h, 0.1 μg/ml CDDP) was 0.088, the “MTT Average” value ([1]; PC3 Run 3, 24 h, 1 μg/ml CDDP) was 0.041 and the “MTT Average” value ([1]; PC3 Run 3, 24 h, 10 μg/ml CDDP) was 0.096. The “MTT Average” value ([1]; PC3 Run 3, 24 h, 100 μg/ml CDDP) was 0.053, the “MTT Average” value ([1]; PC3 Run 3, 48 h, 1 μg/ml CDDP) was 0.033 and the “MTT Average” value ([1]; PC3 Run 3, 48 h, 10 μg/ml CDDP) was 0.062. The “MTT Average” value ([1]; PC3 Run 3, 48 h, 100 μg/ml CDDP) was 0.03, the “MTT Average” value ([1]; PC3 Run 3, 72 h, 0.1 μg/ml CDDP) was 0.151 and the “MTT Average” value ([1]; PC3 Run 3, 72 h, 1 μg/ml CDDP) was 0.027. The “MTT Average” value ([1]; PC3 Run 3, 72 h, 10 μg/ml CDDP) was 0.057, the “MTT Average” value ([1]; PC3 Run 3, 72 h, 100 μg/ml CDDP) was 0.028 and the “MTT Average” value ([2]; MCF-7, Run 2, 24 h, 0.1 μg/ml CDDP) was 0.263. For the same molecule, the “MTT Average” value ([2]; MCF-7, Run 2, 24 h, 1 μg/ml CDDP) was 0.027, the “MTT Average” value ([2]; MCF-7, Run 2, 24 h, 10 μg/ml CDDP) was 0.124 and the “MTT Average” value ([2]; MCF-7, Run 2, 24 h, 100 μg/ml CDDP) was 0.029. For the same molecule, the “MTT Average” value ([2]; MCF-7, Run 2, 48 h, 0.1 μg/ml CDDP) was 0.37, the “MTT Average” value ([2]; MCF-7, Run 2, 48 h, 1 μg/ml CDDP) was 0.025 and the “MTT Average” value ([2]; MCF-7, Run 2, 48 h, 10 μg/ml CDDP) was 0.045. For the same molecule, the “MTT Average” value ([2]; MCF-7, Run 2, 48 h, 100 μg/ml CDDP) was 0.029, the “MTT Average” value ([2]; MCF-7, Run 2, 72 h, 0.1 μg/ml CDDP) was 0.39 and the “MTT Average” value ([2]; MCF-7, Run 2, 72 h, 1 μg/ml CDDP) was 0.038. The “MTT Average” value ([2]; MCF-7, Run 2, 72 h, 10 μg/ml CDDP) was 0.028, the “MTT Average” value ([2]; MCF-7, Run 2, 72 h, 100 μg/ml CDDP) was 0.013 and the “MTT Average” value ([2]; MCF-7, Run 3, 24 h, 0.1 μg/ml CDDP) was 0.516. The “MTT Average” value ([2]; MCF-7, Run 3, 24 h, 1 μg/ml CDDP) was 0.039, the “MTT Average” value ([2]; MCF-7, Run 3, 24 h, 10 μg/ml CDDP) was 0.135 and the “MTT Average” value ([2]; MCF-7, Run 3, 24 h, 100 μg/ml CDDP) was 0.026. The “MTT Average” value ([2]; MCF-7, Run 3, 48 h, 0.1 μg/ml CDDP) was 0.525, the “MTT Average” value ([2]; MCF-7, Run 3, 48 h, 1 μg/ml CDDP) was 0.041 and the “MTT Average” value ([2]; MCF-7, Run 3, 48 h, 10 μg/ml CDDP) was 0.03. For the same molecule, the “MTT Average” value ([2]; MCF-7, Run 3, 48 h, 100 μg/ml CDDP) was 0.032, the “MTT Average” value ([2]; MCF-7, Run 3, 72 h, 0.1 μg/ml CDDP) was 0.546 and the “MTT Average” value ([2]; MCF-7, Run 3, 72 h, 1 μg/ml CDDP) was 0.035. For the same molecule, the “MTT Average” value ([2]; MCF-7, Run 3, 72 h, 10 μg/ml CDDP) was 0.032, the “MTT Average” value ([2]; MCF-7, Run 3, 72 h, 100 μg/ml CDDP) was 0.018 and the “MTT Average” value ([2]; MCF-7 Run 1, 24 h, 0.1 μg/ml CDDP) was 0.574. For the same molecule, the “MTT Average” value ([2]; MCF-7 Run 1, 24 h, 1 μg/ml CDDP) was 0.066, the “MTT Average” value ([2]; MCF-7 Run 1, 24 h, 10 μg/ml CDDP) was 0.194 and the “MTT Average” value ([2]; MCF-7 Run 1, 24 h, 100 μg/ml CDDP) was 0.034. For the same molecule, the “MTT Average” value ([2]; MCF-7 Run 1, 48 h, 0.1 μg/ml CDDP) was 0.719, the “MTT Average” value ([2]; MCF-7 Run 1, 48 h, 1 μg/ml CDDP) was 0.051 and the “MTT Average” value ([2]; MCF-7 Run 1, 48 h, 10 μg/ml CDDP) was 0.069. For the same molecule, the “MTT Average” value ([2]; MCF-7 Run 1, 48 h, 100 μg/ml CDDP) was 0.025, the “MTT Average” value ([2]; MCF-7 Run 1, 72 h, 0.1 μg/ml CDDP) was 0.788 and the “MTT Average” value ([2]; MCF-7 Run 1, 72 h, 1 μg/ml CDDP) was 0.048. The “MTT Average” value ([2]; MCF-7 Run 1, 72 h, 10 μg/ml CDDP) was 0.047 and the “MTT Average” value ([2]; MCF-7 Run 1, 72 h, 100 μg/ml CDDP) was 0.023.
